Laboratory results taken from US20250250231A1, “NOVEL SUBSTITUTED 4-AMINO-4-OXO-BUT-2-ENYL DERIVATIVES, PROCESSES FOR THEIR PREPARATION AND THERAPEUTIC USES THEREOF” (SANOFI, priority 2022, published 2025).
Like-named read-outs stand apart in the source and are kept apart here.

How the values were obtained:
Type in all cases: cell-based
[1] = test system: HCC1428-LTED cells; test: In vitro anti-proliferation assay (CellTiter-Glo viability), HCC1428-LTED cells; details: viability on day 8, relative IC50, read-out: HCC 1428 IC50
Protocol: (§1) Test: In vitro anti-proliferation assay
(§2) Said test involves measuring the in vitro anti-proliferation activity of the compounds of the Table 1a.
(§3) The measurements of the anti-proliferation activities were made using MCF7-WT (ATCC), MCF7-Y537S and HCC1428-LTED cells as described hereunder.
(§4) On Day 1, MCF7-WT and MCF7-Y537S (Mol Cancer Ther. 2021 20(2):250-262), and HCC1428-LTED (J Clin Invest. 2010; 120(7):2406-2413) cells, were seeded at 2000 (WT and LTED) and 500 (Y537S) cells/well in phenol red free IMEM (Corning, 110-026-CV) with 5% Charcoal stripped-FBS and incubated overnight 37° C. and 5% CO2.
(§5) On day 2, compounds were tested in triplicate in 10-point dose response (1:3 serial dilutions with a top concentration starting 300 nM); DMSO for upper limit (negative control) and staurosporine (1 uM) for lower limit (positive control) were also included. MCF7-WT cells were then supplemented with final 0.1 nM b-estradiol. After treating the cells, the assay plates were transferred back in the incubator at 37° C. and 5% CO2.
(§6) On day 8, cell viability was measured per vendor recommendations (CellTiter-Glo, Promega). Relative IC50 measurements were calculated as follow using a 4-parameter logistic derived from Levenburg Marquardt algorithm (IDBS XL Model 205 fit within A-base).

[2] = test system: MCF7-Y537S cells; test: In vitro anti-proliferation assay (CellTiter-Glo viability), MCF7-Y537S cells; details: viability on day 8, relative IC50
Protocol: as §1, §2, §3, §4, §5, §6

[3] = test system: MCF7-WT cells; test: In vitro anti-proliferation assay (CellTiter-Glo viability), MCF7-WT cells; details: MCF7-WT cells supplemented with 0.1 nM b-estradiol, viability on day 8, relative IC50
Protocol: as §1, §2, §3, §4, §5, §6

Row | IC50 ([1]; Homo sapiens, HCC1428, 192 h) | IC50 [2] | IC50 [3] | IC50 [1] | IC50 ([2]; Homo sapiens, MCF7, 192 h) | IC50 ([3]; Homo sapiens, MCF7, 192 h) | SMILES
1 | 0.3 nM | 59 nM | 26 nM | – | – | – | CN(C)C(=O)/C=C/CN1CCC(Cc2ccc(C3=C(c4ccc(Cl)cc4Cl)CCCc4cc(C(=O)O)ccc43)cc2)C1 (single isomer, unassigned; isomer 1) [Compound 18, (E)-8-(2,4-dichlorophenyl)-9-(4-((1-(4-(dimethylamino)-4-oxobut-2-en-1-yl)pyrrolidin-3-yl)methyl)phenyl)-6,7-dihydro-5H-benzo[7]annulene-3-carboxylic acid, Isomer 1]
2 | – | 20.7 nM | 9 nM | 0.2 nM | – | – | CN(C)C(=O)/C=C/CN1CCC(Cc2ccc(C3=C(c4ccc(Cl)cc4Cl)CCCc4cc(C(=O)O)ccc43)cc2)C1 (single isomer, unassigned; isomer 2) [Compound 19, (E)-8-(2,4-dichlorophenyl)-9-(4-((1-(4-(dimethylamino)-4-oxobut-2-en-1-yl)pyrrolidin-3-yl)methyl)phenyl)-6,7-dihydro-5H-benzo[7]annulene-3-carboxylic acid, Isomer 2]
3 | 0.7 nM | – | – | – | ≥ 500 nM | 14 nM | CN(C)C(=O)/C=C/CN1CC[C@H](Oc2ccc(C3=C(c4ccc(Cl)cc4Cl)CCCc4cc(C(=O)O)ccc43)cc2)C1 [Compound 1, (S,E)-8-(2,4-dichlorophenyl)-9-(4-((1-(4-(dimethylamino)-4-oxobut-2-en-1-yl)pyrrolidin-3-yl)oxy)phenyl)-6,7-dihydro-5H-benzo[7]annulene-3-carboxylic acid]
4 | 0.4 nM | – | – | – | ≥ 500 nM | 10 nM | CN(C)C(=O)/C=C/CN1CC[C@H](Oc2ccc(C3=C(c4ccc(F)cc4Cl)CCCc4cc(C(=O)O)ccc43)cc2)C1 [Compound 2, (S,E)-8-(2-chloro-4-fluorophenyl)-9-(4-((1-(4-(dimethylamino)-4-oxobut-2-en-1-yl)pyrrolidin-3-yl)oxy)phenyl)-6,7-dihydro-5H-benzo[7]annulene-3-carboxylic acid]
5 | 0.7 nM | – | – | – | 167 nM | 24 nM | CN(C)C(=O)/C=C/CN1CC[C@H](Oc2ccc(C3=C(c4ccc(Cl)cc4F)CCCc4cc(C(=O)O)ccc43)cc2)C1 [Compound 3, (S,E)-8-(4-chloro-2-fluorophenyl)-9-(4-((1-(4-(dimethylamino)-4-oxobut-2-en-1-yl)pyrrolidin-3-yl)oxy)phenyl)-6,7-dihydro-5H-benzo[7]annulene-3-carboxylic acid]
6 | 2 nM | – | – | – | ≥ 500 nM | 22 nM | CN(C)C(=O)/C=C/CN1CC[C@H](Oc2ccc(C3=C(c4cccc(F)c4Cl)CCCc4cc(C(=O)O)ccc43)cc2)C1 [Compound 4, (S,E)-8-(2-chloro-3-fluorophenyl)-9-(4-((1-(4-(dimethylamino)-4-oxobut-2-en-1-yl)pyrrolidin-3-yl)oxy)phenyl)-6,7-dihydro-5H-benzo[7]annulene-3-carboxylic acid]
7 | 0.2 nM | – | – | – | 76 nM | 3 nM | Cc1ccc(C2=C(c3ccc(O[C@H]4CCN(C/C=C/C(=O)N(C)C)C4)cc3)c3ccc(C(=O)O)cc3CCC2)c(F)c1 [Compound 5, (S,E)-9-(4-((1-(4-(dimethylamino)-4-oxobut-2-en-1-yl)pyrrolidin-3-yl)oxy)phenyl)-8-(2-fluoro-4-methylphenyl)-6,7-dihydro-5H-benzo[7]annulene-3-carboxylic acid]
8 | 0.7 nM | – | – | – | ≥ 500 nM | 14 nM | CN(C)C(=O)/C=C/CN1CC[C@H](Oc2ccc(C3=C(c4ccccc4)CCCc4cc(C(=O)O)ccc43)cc2)C1 [Compound 6, (S,E)-9-(4-((1-(4-(dimethylamino)-4-oxobut-2-en-1-yl)pyrrolidin-3-yl)oxy)phenyl)-8-phenyl-6,7-dihydro-5H-benzo[7]annulene-3-carboxylic acid]
9 | 2 nM | – | – | – | ≥ 500 nM | 28 nM | Cc1ccc(C2=C(c3ccc(O[C@H]4CCN(C/C=C/C(=O)N(C)C)C4)cc3)c3ccc(C(=O)O)cc3CCC2)cc1Cl [Compound 7, (S,E)-8-(3-chloro-4-methylphenyl)-9-(4-((1-(4-(dimethylamino)-4-oxobut-2-en-1-yl)pyrrolidin-3-yl)oxy)phenyl)-6,7-dihydro-5H-benzo[7]annulene-3-carboxylic acid]
10 | 0.2 nM | – | – | – | 87 nM | 3 nM | Cc1ccc(C2=C(c3ccc(O[C@H]4CCN(C/C=C/C(=O)N(C)C)C4)cc3)c3ccc(C(=O)O)cc3CCC2)c(C)c1 [Compound 8, (S,E)-9-(4-((1-(4-(dimethylamino)-4-oxobut-2-en-1-yl)pyrrolidin-3-yl)oxy)phenyl)-8-(2,4-dimethylphenyl)-6,7-dihydro-5H-benzo[7]annulene-3-carboxylic acid]
11 | 0.2 nM | – | – | – | 87 nM | 4 nM | CN(C)C(=O)/C=C/CN1CC[C@H](Oc2ccc(C3=C(c4ccccc4Cl)CCCc4cc(C(=O)O)ccc43)cc2)C1 [Compound 9, (S,E)-8-(2-chlorophenyl)-9-(4-((1-(4-(dimethylamino)-4-oxobut-2-en-1-yl)pyrrolidin-3-yl)oxy)phenyl)-6,7-dihydro-5H-benzo[7]annulene-3-carboxylic acid]
12 | 0.3 nM | – | – | – | ≥ 500 nM | 8 nM | COc1ccc(C2=C(c3ccc(O[C@H]4CCN(C/C=C/C(=O)N(C)C)C4)cc3)c3ccc(C(=O)O)cc3CCC2)c(F)n1 [Compound 10, (S,E)-9-(4-((1-(4-(dimethylamino)-4-oxobut-2-en-1-yl)pyrrolidin-3-yl)oxy)phenyl)-8-(2-fluoro-6-methoxypyridin-3-yl)-6,7-dihydro-5H-benzo[7]annulene-3-carboxylic acid]
13 | 0.1 nM | – | – | – | 204 nM | 2 nM | Cc1ccc(C2=C(c3ccc(O[C@H]4CCN(C/C=C/C(=O)N(C)C)C4)cc3)c3ccc(C(=O)O)cc3CCC2)c(Cl)c1 [Compound 11, (S,E)-8-(2-chloro-4-methylphenyl)-9-(4-((1-(4-(dimethylamino)-4-oxobut-2-en-1-yl)pyrrolidin-3-yl)oxy)phenyl)-6,7-dihydro-5H-benzo[7]annulene-3-carboxylic acid]
14 | 3 nM | – | – | – | ≥ 500 nM | 126 nM | CN(C)C(=O)/C=C/CN1CC(Oc2ccc(C3=C(c4ccc(Cl)cc4Cl)CCCc4cc(C(=O)O)ccc43)cc2)C1 [Compound 12, (E)-8-(2,4-dichlorophenyl)-9-(4-((1-(4-(dimethylamino)-4-oxobut-2-en-1-yl)azetidin-3-yl)oxy)phenyl)-6,7-dihydro-5H-benzo[7]annulene-3-carboxylic acid]
15 | 0.01 nM | – | – | – | 9 nM | 3 nM | CN(C)C(=O)/C=C/CN1CC(Cc2ccc(C3=C(c4ccc(Cl)cc4Cl)CCCc4cc(C(=O)O)ccc43)cc2)C1 [Compound 13, (E)-8-(2,4-dichlorophenyl)-9-(4-((1-(4-(dimethylamino)-4-oxobut-2-en-1-yl)azetidin-3-yl)methyl)phenyl)-6,7-dihydro-5H-benzo[7]annulene-3-carboxylic acid compound with 2,2,2-trifluoroacetic acid (1:1)]
16 | 0.4 nM | – | – | – | 0.4 nM | 101 nM | CN(C)C(=O)/C=C/CN1CC(=Cc2ccc(C3=C(c4ccc(Cl)cc4Cl)CCCc4cc(C(=O)O)ccc43)cc2)C1 [Compound 14, (E)-8-(2,4-dichlorophenyl)-9-(4-((1-(4-(dimethylamino)-4-oxobut-2-en-1-yl)azetidin-3-ylidene)methyl)phenyl)-6,7-dihydro-5H-benzo[7]annulene-3-carboxylic acid]
17 | 5 nM | – | – | – | 186 nM | 53 nM | CN(C)C(=O)/C=C/CN1CC[C@@H](Oc2ccc(C3=C(c4ccc(Cl)cc4Cl)CCCc4cc(C(=O)O)ccc43)cc2)C1 [Compound 15, (R,E)-8-(2,4-dichlorophenyl)-9-(4-((1-(4-(dimethylamino)-4-oxobut-2-en-1-yl)pyrrolidin-3-yl)oxy)phenyl)-6,7-dihydro-5H-benzo[7]annulene-3-carboxylic acid]
18 | 33 nM | – | – | – | 174 nM | 37 nM | CN(C)C(=O)/C=C/CN1CC[C@H](Nc2ccc(C3=C(c4ccc(Cl)cc4Cl)CCCc4cc(C(=O)O)ccc43)cc2)C1 [Compound 16, (S,E)-8-(2,4-dichlorophenyl)-9-(4-((1-(4-(dimethylamino)-4-oxobut-2-en-1-yl)pyrrolidin-3-yl)amino)phenyl)-6,7-dihydro-5H-benzo[7]annulene-3-carboxylic acid]
19 | 1 nM | – | – | – | 138 nM | 10 nM | CN(C)C(=O)/C=C/CN1CC[C@@H](Nc2ccc(C3=C(c4ccc(Cl)cc4Cl)CCCc4cc(C(=O)O)ccc43)cc2)C1 [Compound 17, (R,E)-8-(2,4-dichlorophenyl)-9-(4-((1-(4-(dimethylamino)-4-oxobut-2-en-1-yl)pyrrolidin-3-yl)amino)phenyl)-6,7-dihydro-5H-benzo[7]annulene-3-carboxylic acid]
